# Assay results as given in patent publication US10413529B2, “Methods of inhibiting cataracts and presbyopia” (UNIVERSITY OF MASSACHUSETTS, priority 2013, dated 2019).
# Values joined by “and” are separate entries in the source; they are usually repeats but may differ in a detail not shown here. Identical values can stand only once.
# Legend:
# γ-crystallin [1] = assay: Circular dichroism of modified γ-crystallin (secondary structure); assay type: biochemical; details: 0.5 mg/mL, 22° C., versus native protein
# Protocol: Crystallin samples were dialyzed overnight into 10 mM Na2HPO4/NaH2PO4 buffer pH 6.8 and measured at a concentration of 0.5 mg/mL. CD spectra were measured on a Jasco J715 spectropolarimeter at 22° C. using a quartz cell of 1 mm path length.
# γ-crystallin [2] = assay: DLS, aggregation of γ-crystallin (stated for γD and γS together); assay type: biochemical; details: dilute solution, 22° and 37° C.
# Protocol: Scattering intensity was measured at angles between 30° and 90° at 5° intervals, corresponding to a scattering wave vector (q) range between 8.41×10^6 and 2.30×10^7 m^−1. The scattering wave vector is defined as q=4πn sin (θ/2)/λ, where θ is the scattering angle, and λ=514.5, the wavelength of the argon laser in vacuum, and n is 1.33, the refractive index of water. The temperature of the sample was held at constant temperature of 4 to 37±0.1° C. by a circulating water bath.
# The correlation function was analyzed using CONTIN analysis to calculate lag times for the correlation functions at measured angles. The peaks represent the diffusive mode of the proteins. The delay times (τ) were converted to Γ and graphed versus q^2. The slope of the fitted line is the diffusion coefficient (D). The lines are fitted such that the intercept is zero because a non-zero value of q=0 is unphysical. The Γ versus q^2 plots were linear with r^2 values of 0.95 or greater.
# All solutions were filtered with 0.22 μm hydrophobic PVDF membranes (Fisher Scientific) into 10 mm diameter borosilicate glass tubes and sealed. Solutions were allowed to equilibrate for thirty minutes prior to measuring light scattering.
# γ-crystallins were subjected to a variety of experimental conditions, including a range of pHs (5, 6, 7, 8, 9, 10, 11), concentrations of KCl (100 mM, 150 mM, 300 mM, 500 mM, 1000 mM) and temperature (4.5° C., 22° C., 37° C.). The pH and salt concentration were adjusted via overnight dialysis at 4° C. and their final concentration adjusted to 1.0 g/L.
# It had been hypothesized that disulfide bonds might mediate the observed γ-crystallin aggregates. The DLS of the γ-crystallin proteins was also measured in 5 mM DTT, and in the presence of 1.0 g/L α-crystallin. […] Thus, this hypothesis was incorrect.
# Further, the synthesized α-crystallin proteins were mixed with γ-crystallin proteins to determine if the chaperoning ability of α-crystallin disrupts the γ-crystallin aggregates. The α-A and α-B crystallins were each individually mixed with γD- or γS-crystallin in a molar ratio of 3:1, respectively, mimicking the ratio found in the human eye lens. All solutions were allowed to equilibrate for an hour at 4° C.
# [3] = system: human corneal epithelial cells (EpiOcular™ tissue); assay: Trans-epithelial transport across epithelium construct; assay type: in vitro ADME
# Protocol: The transport of the CAPEG4 across an epithelium construct was studied. The epithelium is the outer layer of the cornea and transport across the epithelium has proven to be challenging.
# Specifically, the CAPEG4 construct in solution (10) was added to the top of an apparatus including a tissue culture plastic insert (11) containing culture medium (12) and an epithelium construct. (FIG. 19).
# [4] = 16 mg/mL CAPEG4, blank insert (no tissue) at 15 min
structure (smiles),measurement,setting,value
NCCOCCOCCOCCOCCC(=O)O [CAPEG4],secondary structure of modified γ-crystallin (CD spectra),γ-crystallin [1],showed a similar trend to modifications made with PEG4 and PEG24
same,aggregation of γ-crystallin modified with the agent (DLS),γ-crystallin [2],prevented aggregation of proteins
same,Bottom Average,"[3]; 1 mg/ml CAPEG4, 15 min",13 mcg/well
same,Top Average,"[3]; 1 mg/ml CAPEG4, 15 min",449 mcg/well
same,Top mcg/well,"[3]; 1 mg/ml CAPEG4, 15 min",427 mcg/well and 472 mcg/well
same,Bottom % (stock),"[3]; 1 mg/ml CAPEG4, 15 min, stock 543 mcg/well",2.4%
same,Bottom Average,"[3]; 1 mg/ml CAPEG4, 30 min",31 mcg/well
same,Bottom mcg/well,"[3]; 1 mg/ml CAPEG4, 30 min",26 mcg/well and 37 mcg/well
same,Top Average,"[3]; 1 mg/ml CAPEG4, 30 min",446 mcg/well
same,Top mcg/well,"[3]; 1 mg/ml CAPEG4, 30 min",448 mcg/well and 445 mcg/well
same,Bottom % (stock),"[3]; 1 mg/ml CAPEG4, 30 min, stock 543 mcg/well",5.8%
same,Bottom Average,"[3]; 1 mg/ml CAPEG4, 45 min",8 mcg/well
same,Bottom mcg/well,"[3]; 1 mg/ml CAPEG4, 45 min",9 mcg/well and 8 mcg/well
same,Top Average,"[3]; 1 mg/ml CAPEG4, 45 min",443 mcg/well
same,Top mcg/well,"[3]; 1 mg/ml CAPEG4, 45 min",459 mcg/well and 428 mcg/well
same,Bottom % (stock),"[3]; 1 mg/ml CAPEG4, 45 min, stock 543 mcg/well",1.5%
same,Bottom Average,"[3]; 1 mg/ml CAPEG4, 60 min",9 mcg/well
same,Bottom mcg/well,"[3]; 1 mg/ml CAPEG4, 60 min",8 mcg/well and 11 mcg/well
same,Top Average,"[3]; 1 mg/ml CAPEG4, 60 min",421 mcg/well
same,Top mcg/well,"[3]; 1 mg/ml CAPEG4, 60 min",454 mcg/well and 388 mcg/well
same,Bottom % (stock),"[3]; 1 mg/ml CAPEG4, 60 min, stock 543 mcg/well",1.7%
same,Bottom Average,"[3]; 1 mg/ml CAPEG4, 90 min",31 mcg/well
same,Top Average,"[3]; 1 mg/ml CAPEG4, 90 min",463 mcg/well
same,Top mcg/well,"[3]; 1 mg/ml CAPEG4, 90 min",467 mcg/well and 459 mcg/well
same,Bottom % (stock),"[3]; 1 mg/ml CAPEG4, 90 min, stock 543 mcg/well",5.7%
same,Bottom Average,"[3]; 1 mg/ml CAPEG4, 120 min",25 mcg/well
same,Bottom mcg/well,"[3]; 1 mg/ml CAPEG4, 120 min",21 mcg/well and 30 mcg/well
same,Top Average,"[3]; 1 mg/ml CAPEG4, 120 min",481 mcg/well
same,Top mcg/well,"[3]; 1 mg/ml CAPEG4, 120 min",453 mcg/well and 510 mcg/well
same,Bottom % (stock),"[3]; 1 mg/ml CAPEG4, 120 min, stock 543 mcg/well",4.7%
same,Bottom Average,"[3]; 1 mg/ml CAPEG4, Time 0 harvest",3 mcg/well
same,Bottom mcg/well,"[3]; 1 mg/ml CAPEG4, Time 0 harvest",4 mcg/well and 3 mcg/well
same,Top Average,"[3]; 1 mg/ml CAPEG4, Time 0 harvest",450 mcg/well
same,Top mcg/well,"[3]; 1 mg/ml CAPEG4, Time 0 harvest",446 mcg/well and 453 mcg/well
same,Bottom % (stock),"[3]; 1 mg/ml CAPEG4, Time 0 harvest, stock 543 mcg/well",0.6%
same,Bottom Average,"[3]; 16 mg/mL CAPEG4, 15 min",60 mcg/well
same,Bottom mcg/well,"[3]; 16 mg/mL CAPEG4, 15 min",58 mcg/well and 62 mcg/well
same,Top Average,"[3]; 16 mg/mL CAPEG4, 15 min",6375 mcg/well
same,Top mcg/well,"[3]; 16 mg/mL CAPEG4, 15 min",5842 mcg/well and 6908 mcg/well
same,Bottom % (stock),"[3]; 16 mg/mL CAPEG4, 15 min, stock 8186 mcg/well",0.7%
same,Bottom Average,"[3]; 16 mg/mL CAPEG4, 30 min",99 mcg/well
same,Bottom mcg/well,"[3]; 16 mg/mL CAPEG4, 30 min",93 mcg/well and 105 mcg/well
same,Top Average,"[3]; 16 mg/mL CAPEG4, 30 min",6312 mcg/well
same,Top mcg/well,"[3]; 16 mg/mL CAPEG4, 30 min",6099 mcg/well and 6526 mcg/well
same,Bottom % (stock),"[3]; 16 mg/mL CAPEG4, 30 min, stock 8186 mcg/well",1.2%
same,Bottom Average,"[3]; 16 mg/mL CAPEG4, 45 min",548 mcg/well
same,Bottom mcg/well,"[3]; 16 mg/mL CAPEG4, 45 min",677 mcg/well and 418 mcg/well
same,Top Average,"[3]; 16 mg/mL CAPEG4, 45 min",6335 mcg/well
same,Top mcg/well,"[3]; 16 mg/mL CAPEG4, 45 min",6313 mcg/well and 6356 mcg/well
same,Bottom % (stock),"[3]; 16 mg/mL CAPEG4, 45 min, stock 8186 mcg/well",6.7%
same,Bottom Average,"[3]; 16 mg/mL CAPEG4, 60 min",149 mcg/well
same,Bottom mcg/well,"[3]; 16 mg/mL CAPEG4, 60 min",160 mcg/well and 139 mcg/well
same,Top Average,"[3]; 16 mg/mL CAPEG4, 60 min",6972 mcg/well
same,Top mcg/well,"[3]; 16 mg/mL CAPEG4, 60 min",6450 mcg/well and 7494 mcg/well
same,Bottom % (stock),"[3]; 16 mg/mL CAPEG4, 60 min, stock 8186 mcg/well",1.8%
same,Bottom Average,"[3]; 16 mg/mL CAPEG4, 90 min",525 mcg/well
same,Bottom mcg/well,"[3]; 16 mg/mL CAPEG4, 90 min",525 mcg/well
same,Top Average,"[3]; 16 mg/mL CAPEG4, 90 min",6457 mcg/well
same,Top mcg/well,"[3]; 16 mg/mL CAPEG4, 90 min",6122 mcg/well and 6792 mcg/well
same,Bottom % (stock),"[3]; 16 mg/mL CAPEG4, 90 min, stock 8186 mcg/well",6.4%
same,Bottom Average,[3]; [4],1837 mcg/well
same,Bottom mcg/well,[3]; [4],1837 mcg/well
same,Top Average,[3]; [4],7857 mcg/well
same,Top mcg/well,[3]; [4],7857 mcg/well
same,Bottom % (stock),"[3]; 16 mg/mL CAPEG4, blank insert (no tissue) at 15 min, stock 8186 mcg/well",23%
